The text below walks through data of patent US11572344B2, “Cyanoaryl-aniline compounds for treatment of dermal disorders” (NFlection Therapeutics, Inc., priority 2018, dated 2023).

Assay [1] concerns the target T1, MEK1 (Homo sapiens (Human), UniProt Q02750). Kind of assay: MEK Inhibition Assay-2 (Z′-LYTE biochemical assay). The conditions noted are these: Z′-LYTE assay of Example 39; read-out: IC50 against MEK1. As to the method:
MEK1 inhibitory activity of compounds were tested using the following procedure (protocol available at thermofisher.com/content/dam/LifeTech/migration/files/drug-discovery/pdfs.par.60256.file.dat/20130430%20ssbk %20customer %20protocol %20and %20assa y %20conditions.pdf). The Z′-LYTE biochemical assay (ThermoFisher) employs a fluorescence-based, coupled-enzyme format and is based on the differential sensitivity of phosphorylated and non-phosphorylated peptides to proteolytic cleavage.
Test compounds in 100% DMSO were screened in 1% DMSO (final) in the well. For 10 point titrations, 3-fold serial dilutions are conducted from the starting concentration of 30 μM.
After the 1 hour incubation, 5 μL of a 1:1024 dilution of Development Reagent A (available from Invitrogen, catalog no. PV3295) was added.
ATP solutions were diluted to a 4× working concentration in Kinase Buffer (50 mM HEPES pH 7.5, 0.01% BRIJ-35, 10 mM MgCl2, 1 mM EGTA). ATP Km apparent was previously determined using a Z′-LYTE assay. The Development Reagent was diluted in Development Buffer (available from Invitrogen, catalog no. P3127).
Assay Protocol: 2.5 μL of 4× test compound or 100 nL of 100× Test Compound plus 2.4 μL Kinase Buffer, 5 μL of the 2× Peptide/Kinase Mixture, 2.5 μL of 4×ATP Solution were added to the plates and placed on a shake plate for 30-seconds. The kinase reaction was allowed to proceed for 60-minute at room temperature, before 5 μL of Development Reagent Solution was added, and the mixture agitated for 30-seconds on a shake plate. The mixture was incubated for 60-minute at room temperature. Fluorescence was measured using a plate reader and the data were analyzed.
This control yielded 100% cleaved peptide in the Development Reaction. The 100% Phosphorylation Control, which consisted of a synthetically phosphorylated peptide of the same sequence as the peptide substrate, was designed to allow for the calculation of percent phosphorylation. This control yielded a very low percentage of cleaved peptide in the Development Reaction. The 0% Phosphorylation and 100% Phosphorylation Controls allow for the calculation of the percent phosphorylation achieved in a specific reaction well.
The minimum emission ratio in a screen was established by the 0% Inhibition Control, which contained active kinase. This control was designed to produce a 10-50% phosphorylated peptide in the Kinase Reaction. Cascade assays may produce up to 70% phosphorylated peptide.
A known inhibitor control standard curve, 10 point titration, was run for each individual kinase on the same plate as the kinase to ensure the kinase was inhibited within an expected IC50 range previously determined.
The following controls are prepared for each concentration of Test Compound assayed. […] The expected value for a non-interfering compound should be 100%. Any value outside of 90% to 110% was flagged. […] The expected value for a non-fluorescence compound should be 0%. Any value>20% was flagged.
The data in Table A was calculated. XLfit from IDBS was used. The dose response curve was curve fit to model number 205 (sigmoidal dose-response model).
Table 3 lists the MEK1 inhibition assay results of selected compounds according to the above procedure.

For assay [2], the target named is T1, MEK1. The assay can be described thus: MEK Inhibition Assay-1 (33P-ATP, P81 filter-binding). The note with it: assay of Example 38; read-out: Assay 1: biochemical MEK IC50. The procedure: The following procedure can be used to measure biochemical activity. MEK1 inhibitory activity of compounds were tested using the following procedure. […] Nat Biotechnol. 2011, 29(11), 1039-45.
• Reaction buffer: 20 mM Hepes (pH 7.5), 10 mM MgCl2, 1 mM EGTA, 0.02% Brij35, 0.02 mg/mL BSA, 0.1 mM Na3VO4, 2 mM DTT, 1% DMSO • Enzyme: MEK1, Invitrogen cat #PV3303 • N-terminal His-tagged recombinant human full length protein, expressed in insect cells. Activated in vitro by RAF1. MW=49.2 kDa, GenBank Accession No. NP_002746. • Substrate: 5 μM ERK2 (K52R), • Kinase-dead mutant, (GenBank Accession No. NM_0011949), aa2-358 with N-terminal His6 tag, MW=43.63 kDa, expressed in E. coli.
The substrate was prepared in freshly prepared Reaction Buffer. The kinase was delivered into the substrate solution and gently mixed. Test compounds were delivered in 100% DMSO into the kinase reaction mixture by Acoustic technology (Echo550; nanolitter range), and incubated for 20 min at room temperature. ^33P-ATP was delivered into the reaction mixture to initiate the reaction. The reaction mixture was incubated for 2 hours at room temperature. Kinase activity was detected by P81 filter-binding method.
Assay 1 is the biochemical MEK IC50 (nM) assay as described in Example 38.

T1 sequence (Q02750 whole entry): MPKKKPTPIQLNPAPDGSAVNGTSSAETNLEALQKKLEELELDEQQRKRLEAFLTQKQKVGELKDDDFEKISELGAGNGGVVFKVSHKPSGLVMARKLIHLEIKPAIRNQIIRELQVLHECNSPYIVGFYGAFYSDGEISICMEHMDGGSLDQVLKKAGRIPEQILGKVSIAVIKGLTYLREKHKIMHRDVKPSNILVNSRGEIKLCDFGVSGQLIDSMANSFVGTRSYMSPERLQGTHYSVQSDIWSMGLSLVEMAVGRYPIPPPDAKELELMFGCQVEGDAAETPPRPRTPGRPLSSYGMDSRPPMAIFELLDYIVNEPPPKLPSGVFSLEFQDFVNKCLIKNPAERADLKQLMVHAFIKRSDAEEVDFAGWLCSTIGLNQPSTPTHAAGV

As to `N#Cc1ccc(C(=O)NOCCO)c(Nc2ccc(I)cc2F)c1` [Compound 1.010], the IC50 in assay [1] and in assay [2] was at most 0.15 µM each time.

With `N#Cc1ccc(C(=O)NOCCO)c(Nc2ccc(I)cc2F)c1F` [Compound 1.030, 4-cyano-3-fluoro-2-((2-fluoro-4-iodophenyl)amino)-N-(2-hydroxyethoxy) benzamide], the IC50 in assay [1] and in assay [2] was at most 0.15 µM in each case.

In the case of `N#Cc1ccc(C(=O)NOCC2CC2)c(Nc2ccc(I)cc2F)c1F` [Compound 1.031], the IC50 in assay [1] and in assay [2] was at most 0.15 µM each time.
